# Assay results reported in patent US20040096520A1, “Manganese compositions for reducing/preventing skin wrinkles and fine lines” (SOCIETE L'OREAL S.A., priority 2000, published 2004).
# Test system: phrenic nerve/isolated diaphragm preparation
# Details: 10^−3 M; contractions induced by indirect stimulation via the phrenic nerve (0.1 to 7 volts, 0.3 ms, 0.1 Hz); cumulative concentrations
# Protocol: Activity of manganese gluconate and of manganese chloride in a model of nerve/muscle junction (motor plate) obtained in a phrenic nerve/isolated diaphragm preparation: investigation of a myorelaxant effect:
# The phrenic nerve and the diaphragm were carefully isolated and placed in a 50 ml tank filled with survival fluid (Krebs Henseleit liquid) maintained at a temperature of 37° C. and oxygenated with a mixture of 95% oxygen and 5% CO2.
# The variations in the tension of the diaphragm were then recorded with an initial preloading of several grams.
# After a relaxation period of 30 min., the diaphragm was stimulated indirectly via the phrenic nerve.
# On each preparation, the effect of the test products was evaluated, in a first stage, on the contractions induced by indirect stimulation via stimulation of the phrenic nerve (0.1 to 7 volts, 0.3 ms, 0.1 Hz) at increasing and cumulative concentrations from 10^−6 M to 10^−3 M.
row,Substance,% of inhibition (indirect stimulation)
1,manganese chloride [MnCl2],10%
2,manganese gluconate,25%
